Experiments:
[1] = tested on: patient suffering from mastalgia and stomach pains due to premenstrual syndrome; assay: Application of terguride in the case of mastalgia/premenstrual syndrome (single patient); type: in vivo, human
Description: A patient suffering from mastalgia and stomach pains due to premenstrual syndrome was treated with terguride. […] The therapy started in the middle of the cycle. Twice a day, a tablet containing 0.5 mg terguride was administered to the patient over a period of 3 months. The pain severity was observed by means of a visual analogue scale. During the therapy, the pains in the chest and stomach area decreased and the patient was able to renounce on the administration of additional pain medication.

[2] = tested on: patient suffering from migraine; assay: Application of terguride for the prophylaxis of migraine (single patient, diary); type: in vivo, human; conditions: daily dose 2 mg
Description: A patient, suffering from migraine on average four times a month, was treated with terguride. The patient was treated with a daily dose of 2 mg terguride which was administered in the morning and in the evening in single doses of 1 mg. The treatment was realized gradually. […] The patient was treated over a period of 24 weeks. The frequency, duration and severity of the migraine attacks were recorded by means of a diary. Within 4 weeks following the start of the treatment, a reduction of 40% of the frequency of migraine attacks could be shown, as well as a reduction of the attack duration from cumulative 12 days before the therapy to 8 days under terguride. The consumption of pain medication under therapy with terguride was reduced by 46%. […] The patient reported an improvement of […] general condition.

[3] = tested on: patient with diabetic neuropathy; assay: Diabetic neuropathy case (numerical rating scale); type: in vivo, human
Description: About 15 months ago, a diabetic neuropathy was clinically diagnosed in a patient who has been suffering from Type 2 Diabetes for 10 years. The patient was treated with 3×50 mg amitryptiline/day. At the time of the examination, the patient complained about pain conditions associated with burning sensations, shooting or stabbing pains and unpleasant formication, mainly in the feet and with increasing intensity during the night. On the numerical rating scale from 0=no pain to 10=maximum pain intensity, the patient reported mean pain values of 8-9 on average.
Under therapy with terguride (0.5 mg b.i.d.) the pain conditions and the general condition of the patient improved quickly (average pain value of 2-3 on the rating scale).

[4] = tested on: patient with migrainous headaches; assay: Migraine prophylaxis case; type: in vivo, human
Description: The patient suffered from migrainous headaches with an average of 4-5 attacks per month, lasting on average between 3 and 8 hours. For acute pain treatment during an attack, a dosage of 50 mg of sumatriptan was administered orally. For the purpose of migraine prophylaxis, the patient was treated with topiramate in a dosage of 200 mg per day. […] Under administration of terguride (2×0.25 mg per day), the number of pain attacks decreased considerably to only one pain attack within 6 weeks with low pain intensity; also, the well-being of the patient improved within 2 weeks after the start of the therapy.

[5] = tested on: patient with postherpetic neuralgia; assay: Postherpetic neuralgia case; type: in vivo, human; conditions: for pains under prior treatment: amitriptyline 3x50 mg/d, subsequently gabapentin 1500 mg daily, considerable deterioration within 10 days
Excerpt: A patient of normal weight complained about a severe burning sensation and pains in the dermal area of the chest.

[6] = tested on: patient suffering from fibromyalgia; assay: Application of terguride in the case of fibromyalgia (single patient); type: in vivo, human
Description: A patient suffering from fibromyalgia was treated with terguride. The patient complained about chronic pain in the extremities as well as about stomach pains and continuous exhaustion and tiredness. The discomforts had persisted for several months. No pretreatment had been realized prior to the treatment with terguride. The patient was treated with a daily dose of 3 mg of terguride which was administered in the morning and in the evening in single doses of 1.5 mg. The treatment was realized gradually. […] The treatment was realized over a period of 25 weeks and the condition of the patient was examined weekly.

[7] = tested on: patient with herniated disc, chronic pain; assay: Herniated disc chronic pain case, co-therapy with oxycodone
[8] = tested on: tumor patient with bone pains from bone metastases; assay: Tumor associated pain case; type: in vivo, human; conditions: 0.5 mg bid
Description: A tumor patient suffering from a pancreatic carcinoma complained about bone pains resulting from the development of bone metastases. The patient was treated with ibandronate. Additionally, the treatment was realized with ibuprofen, acetaminophen and desipramine. […] After the start of the therapy with terguride (0.5 mg bid) the patient's pain conditions were reduced and the well-being improved continuously.

[9] = tested on: patient suffering from fibromyalgia; assay: Application of proterguride in the case of fibromyalgia (single patient); type: in vivo, human; conditions: daily dose 0.5 mg
Description: A patient suffering from fibromyalgia was treated with proterguride.
The patient complained about stomach problems, stomach pains, pains in the chest as well as about swollen breasts and continuous exhaustion and tiredness. The discomforts had persisted for approx. one year. No pretreatment had been realized prior to the treatment with proterguride.
The patient was treated with a daily dose of 0.5 mg of proterguride which was administered in the morning and in the evening. The treatment was realized gradually.
The treatment was realized over a period of 33 weeks and the condition of the patient was examined weekly. After just 12 weeks, the condition had improved, particularly regarding the pains in the chest.

CCN(CC)C(=O)N[C@H]1C[C@@H]2c3cccc4[nH]cc(c34)C[C@H]2N(C)C1 [terguride]
general condition and joy of life ([1]; 0.5 mg twice a day, 3 months): considerably improved
pains in the chest and stomach area (visual analogue scale) ([1]; 0.5 mg twice a day, 3 months): decreased
side effects ([1]; 0.5 mg twice a day, 3 months): No side effects were observed
symptoms during the following months under therapy ([1]; continued therapy): remained symptom-free
side effects ([2]; 24 weeks): No side effects
attack duration (cumulative) ([2]; under terguride, versus 12 days before the therapy): 8 days
reduction of consumption of pain medication ([2]; under therapy): 46%
reduction of the frequency of migraine attacks ([2]; within 4 weeks following start of treatment): 40%
side effects ([3]; 0.5 mg b.i.d.): No side effects
loss of efficacy under continuous treatment ([3]; 0.5 mg b.i.d., continuous treatment): No signs of an loss of efficacy
average pain value on numerical rating scale (0=no pain to 10=maximum pain intensity) ([3]; under terguride 0.5 mg b.i.d.): 2-3
side effects ([4]; terguride 2x0.25 mg per day): No side effects were observed
time to improvement of well-being after start of therapy ([4]; terguride 2x0.25 mg per day): ≤ 2 weeks
number of pain attacks within 6 weeks ([4]; terguride 2x0.25 mg per day, before: 4-5 attacks per month, low pain intensity): one
migraine presentation after discontinuation (treatment-free interval) ([4]; terguride discontinued): the migraine presentation returned
side effects ([5]; 0.5 mg t.i.d.): No side effects were observed
pain on gradual dose reduction (treatment-free interval) ([5]; after 3 months, daily dose gradually reduced): the pain increased quickly
pain presentation ([5]; terguride 0.5 mg t.i.d.): improved in a fast and continuous manner
condition, in particular pains in the extremities and stomach pains (visual analog scale) ([6]; daily dose 3 mg (2 x 1.5 mg), after 10 weeks): visibly improved
chronic conditions of tiredness and exhaustion ([6]; daily dose 3 mg, after 17 weeks): nearly impossible to detect
efficacy under chronic therapy ([7]; chronic therapy): remained efficient
pain ([7]; co-therapy terguride 2x0.5 mg/day with oxycodone 2x20 mg/day): almost completely pain-free
pain conditions [8]: reduced
side effects [8]: No side effects were observed

COc1ccc2c3c1O[C@H]1C(=O)CC[C@@]4(O)[C@@H](C2)N(C)CC[C@]314 [oxycodone, reference compound]
pain intensity ([7]; oxycodone alone, 2x10 mg increased to 2x40 mg per day): considerably reduced
constipation complaints ([7]; oxycodone alone, longer treatment, required dose reduction to 2x20 mg/day): the more complaints occurred due to constipation

CCCN1C[C@@H](NC(=O)N(CC)CC)C[C@@H]2c3cccc4[nH]cc(c34)C[C@H]21 [proterguride]
condition, particularly pains in the chest ([9]; after 12 weeks): improved
swelling of breasts ([9]; after 12 weeks): reduction of the swelling
chronic tiredness and exhaustion and stomach pains ([9]; after 20 weeks): largely disappeared
overall condition of the patient ([9]; after 30 weeks): in the same condition as before the onset of the disease

CC1(C)O[C@@H]2[C@@H](CO[C@@]3(COS(N)(=O)=O)OC(C)(C)O[C@@H]23)O1 [topiramate, reference compound]
migraine activity ([4]; topiramate 200 mg per day): No reduction of the migraine activity
adverse effects leading to discontinuation ([4]; topiramate 200 mg per day, after 3 months): nausea and weight loss

NCC1(CC(=O)O)CCCCC1 [gabapentin, reference compound]
pains under prior treatment [5]: only to a short-term improvement

CN(C)CCC=C1c2ccccc2CCc2ccccc21 [amitriptyline, reference compound]
mean pain values on numerical rating scale (0=no pain to 10=maximum pain intensity) ([3]; at examination, patient treated with 3x50 mg/day, before terguride): 8-9
pains under prior treatment [5]: only to a short-term improvement

— patent publication US20070225312A1, “TERGURIDE / PROTERGURIDE FOR THE TREATMENT OF CHRONIC PAIN” (ERGONEX PHARMA GMBH, priority 2006, published 2007)
